Patent EP2662079A1 (Ordway Research Institute, Inc., priority 2012, dated 2013)
“And” between values parts separate entries of the source, which are not always exact repeats. Equal entries are not always repeated.

Assays:
[1] = system: GL261 murine brain tumor cells; test: GL261 growth curve, cell size and colony forming efficiency; type: cell-based
Method: 1 x 10^5 cells per 25 cm^2 flask at time zero (density 40 cells/mm^2). Three flasks were utilized at each time period. The medium in the flasks was not changed over the duration of the growth curve (unfed cultures). Data were taken daily from day zero to day 11.5 post-seeding and cell numbers, age distributions, and apoptotic percentages were determined. After growth curve shapes (without and with 2 µM Tetrac) were determined, irradiation times at 70 and 270 hour post-seeding were chosen.
To obtain exponential and plateau phase cell numbers, we trypsinized ([…] trypsin-EDTA) cells for 5 min at 37°C.
For determination of CCDTs, the cell numbers per flask were determined on a daily basis. A four-day interval in the exponential region of growth to obtain the CCDTs, yielding a total of 12 estimations for analysis was utilized. A regression analysis was performed using the (log) of the cell number versus the linear time in days (SigmaPlot, V. 10, Systat Software, Inc., Point Richmond, CA). The log slope value and its standard error (SE) were determined, and the SE was converted to the 95% confidence limits using a two-tailed t-table at N-1 degrees of freedom where N is the number of samples. (See Goldstein, A. In: Biostatistics, New York, The MacMillan Co., 1964, p. 140-146).

[2] = system: chick chorioallantoic membrane (CAM); test: Chorioallantoic membrane (CAM) model of angiogenesis; type: in vivo
Method: In vivo neovascularization was examined by methods described previously. 9-12 Ten-day-old chick embryos were purchased from SPAFAS (Preston, CT) and incubated at 37°C with 55% relative humidity. A hypodermic needle was used to make a small hole in the shell concealing the air sac, and a second hole was made on the broad side of the egg, directly over an avascular portion of the embryonic membrane that was identified by candling. A false air sac was created beneath the second hole by the application of negative pressure at the first hole, causing the CAM to separate from the shell. A window approximately 1.0 cm^2 was cut in the shell over the dropped CAM with a small-crafts grinding wheel (Dremel, division of Emerson Electric Co.), allowing direct access to the underlying CAM. FGF2 (1µg/mL) was used as a standard proangiogenic agent to induce new blood vessel branches on the CAM of 10-day-old embryos. Sterile disks of No. 1 filter paper (Whatman International) were pretreated with 3 mg/mL cortisone acetate and 1 mmol/L PTU and air dried under sterile conditions. Thyroid hormone, hormone analogs, FGF2 or control solvents, and inhibitors were then applied to the disks and the disks allowed to dry. The disks were then suspended in PBS and placed on growing CAMs. […] At 24 hours, the MAPK cascade inhibitor PD 98059 was also added to CAMs topically by means of the filter disks.
After incubation at 37°C with 55% relative humidity for 3 days, the CAM tissue directly beneath each filter disk was resected from control and treated CAM samples. Tissues were washed 3X with PBS, placed in 35-mm Petri dishes (Nalge Nunc), and examined under an SV6 stereomicroscope (Zeiss) at X50 magnification. Digital images of CAM sections exposed to filters were collected using a 3-charge-coupled device color video camera system (Toshiba) and analyzed with Image-Pro software (Media Cybernetics). The number of vessel branch points contained in a circular region equal to the area of each filter disk were counted. One image was counted in each CAM preparation, and findings from 8 to 10 CAM preparations were analyzed for each treatment condition (thyroid hormone or analogs, FGF2, FGF2 antibody, PD 98059). In addition, each experiment was performed 3 times. The resulting angiogenesis index is the mean ± SEM of new branch points.

U87MG cells = test: Clonogenic survival after 250 kVp x-irradiation; type: cell-based, human
Method: To irradiate culture flasks, a Philips 250 kVp x-ray machine (Philips Corp., Fall River, MA) operated at 250 kVp and 15 mA with added filtration of a 0.4 mm Thoreaus filter was used. The target to source distance was 30 cm. Dose rates were measured using an R-meter (Victoreen Co., Cleveland, OH), and converted to absorbed (Gy) doses using appropriate temperature, pressure, and R to Gy conversion factors. The dose rate was approximately 1 Gy/min. Flasks were irradiated after being taken from a 37°C environment and moved to the x-ray source. Movement at ambient temperature took approximately 1-2 min. Cells were next placed on ice and allowed to cool for 5 min. Lastly, flasks were placed in the Philips irradiator on top of a 2 mm thickness of Lucite which was on top of a layer of crushed ice. […]
For SHMT analysis, data lying at or below a fractional survival (FxS) value of 0.368 were fit using a linear regression analysis of the log survival data versus linear dose. From this fit the extrapolation number (n), the quasi-threshold dose (Dq, Gy) and the inverse of the inactivation slope (Do, Gy) were derived.
For LQ analyses, survival data lying between the fractional survivals of 1.00 and 0.05 were used. The log survival data were transformed to a linear form using the relationship (- ln FxS/D) and plotted against D. A linear regression analysis was performed to yield the LQ equation along with the 95% confidence limits on the γ-intercept (alpha) and the slope (beta) using a t-table with the appropriate (N-1) degrees of freedom. (See Goldstein A. Biostatistics, Academic Press, 1995.)

[3] = system: SKN-SH, SaOS2, and MCF7 cells; test: Proliferation of drug-sensitive and drug-resistant cancer cells (MTT assay); type: cell-based
Text: Cells were harvested and nuclear fractions prepared as described previously. Nucleoproteins, separated by gel electrophoresis, were immunoblotted with antibody to phosphorylated MAPK (pERK1 and pERK2, 44 and 42 kDa, respectively), followed by a second antibody linked to a luminescence-detection system. A β-action immunoblot of nuclear fractions serves as a control for gel loading in each part of this figure. […] The levels of FGF2 cDNA, shown in the top blot, were corrected for variations in GAPDH cDNA content, shown in the bottom blot, and the corrected levels of FGF2 are illustrated below in the graph (mean ±SE of mean; n = 2 experiments). […] Drug-sensitive and -resistant SKN-SH (Figures 13C-D), SaOS2 (Figures 13A-B), and MCF7 (Figures 13E-F) cells were subjected to treatment with increasing concentrations of Tetrac or Doxirubicin over a period of 4 days. Cell viability was then measured by MTT assay. […] The cells were treated for 24 h with each drug alone or the combination of both, after that, expression of drug resistance molecules was determined by Western blot using specific antibodies. […] The cells were incubated for 24 hours with doxorubicin in the absence or the presence of Tetrac, after that they were washed and then solubilized. […]

Compound: O=C(O)Cc1cc(I)c(Oc2cc(I)c(O)c(I)c2)c(I)c1 [Tetrac, 3,3',5,5'-tetraiodothyroacetic acid]
- saturation density of control cells relative to Tetrac-treated cells [1]: approximately 2.4 times
- cell doubling time ([1]; Tetrac-treated GL261 cells, 2 µM, exponential growth): 43.8 ± 3.8 h and 43.8 h
- effect of Tetrac alone on angiogenesis ([2]; CAM model (Figure 3C)): no effect
- Mean Branch points ([2]; CAM model, FGF (1.25 µg/ml) + compound at 10 µg/plug, n=8): 81± 8
- effect on the action of T4 in the CAM model ([2]; Tetrac 0.1 µmol/L): inhibited
- increase of α (ratio of the alpha values) (U87MG cells): 3.6 fold
- increase of β (U87MG cells): 4.8 fold
- median sensitization factor (U87MG cells): 3.6
- ratio of relative survival values at 2 Gy (U87MG cells): 4.6
- reduction of the DQ value (U87MG cells): 100%
- reduction of the Do value (U87MG cells): 31%
- α (U87MG cells; LQ, Tetrac treated cells): 0.817 (± 0.091)
- β (U87MG cells; LQ, Tetrac treated cells): 0.076 (± 0.006)
- DQ (Gy) (U87MG cells; SHMT, Tetrac treated cells): 0.00 ± 0.22 Gy
- Do (Gy) (U87MG cells; SHMT, Tetrac treated cells): 1.09 ± 0.36 Gy
- relative survival at 2 Gy (U87MG cells; Tetrac treated cells (control 59.6)): 12.8
- isoeffect comparison ratio (U87MG cells; at 10% survival): 2.2
- average sensitization factor (U87MG cells; average of 3 comparisons, range of 2.2 to 4.6): 3.5
- anti-proliferative activity in vitro against drug-sensitive and drug-resistant cells ([3]; 4 days, MTT (Figure 13)): equivalent
- cellular responses to doxorubicin, etoposide, cisplatin and TSA when combined with Tetrac ([3]; resistant SKN-SH/R, MCF7/R and SaOS2/R cells (Figure 14)): significantly enhanced
